Source: PubChem BioAssay AID1259407 (Chemical Carcinogenesis Research Information System (CCRIS), 2018)
Active and inactive are the calls of the source. How the calls were made is not given here.

System: CCRIS mutagenicity, Ames/micronucleus/aberration tests
Test: CCRIS mutagenicity studies
[1] = Test System: AMES SALMONELLA TYPHIMURIUM, Strain/Indicator: TA98, Metabolic Activation: NONE, Method: PREINCUBATION
[2] = Test System: AMES SALMONELLA TYPHIMURIUM, Strain/Indicator: TA100, Metabolic Activation: NONE, Method: PREINCUBATION

Compound: O=C(O)C(Cl)(Cl)Cl
- mutagenic call (End Point: IN VIVO MICRONUCLEUS, Test System: BONE MARROW POLYCHROMATIC ERYTHROCYTES, Species: MOUSE, Strain/Sex: C57BL/6JFBL10/ALPK/FEMALE, Route: IP INJECTION 2 TIMES AT 24 HR INTERVAL): inactive; negative
- mutagenic call (End Point: IN VIVO MICRONUCLEUS, Test System: BONE MARROW POLYCHROMATIC ERYTHROCYTES, Species: MOUSE, Strain/Sex: C57BL/6JFBL10/ALPK/MALE, Route: IP INJECTION 2 TIMES AT 24 HR INTERVAL): inactive; negative; a statistically significant increase was observed at 675 mg/kg after 2
- mutagenic call (Test System: AMES SALMONELLA TYPHIMURIUM, Strain/Indicator: RSJ100, Metabolic Activation: NONE, Method: PREINCUBATION): inactive; negative
- mutagenic call (Test System: AMES SALMONELLA TYPHIMURIUM, Strain/Indicator: RSJ100, Metabolic Activation: RAT LIVER S-9, Method: PREINCUBATION): inactive; negative
- mutagenic call [1]: inactive; negative
- mutagenic call (Test System: AMES SALMONELLA TYPHIMURIUM, Strain/Indicator: TA98, Metabolic Activation: RAT LIVER S-9, Method: PREINCUBATION): inactive; negative
- mutagenic call (Test System: AMES SALMONELLA TYPHIMURIUM, Strain/Indicator: TA98, Metabolic Activation: RAT, LIVER, S-9, PHENOBARBITAL AND 5,6-BENZOFLAVONE, Method: PREINCUBATION): inactive; negative
- mutagenic call (Test System: AMES SALMONELLA TYPHIMURIUM, Strain/Indicator: TA100, Metabolic Activation: NONE, Method: BAG VAPORIZATION): inactive; negative
- mutagenic call (Test System: AMES SALMONELLA TYPHIMURIUM, Strain/Indicator: TA100, Metabolic Activation: NONE, Method: FLUCTUATION TEST): active; positive
- mutagenic call [2]: inactive; negative
- mutagenic call (Test System: AMES SALMONELLA TYPHIMURIUM, Strain/Indicator: TA100, Metabolic Activation: RAT LIVER S-9, Method: PREINCUBATION): inactive; negative
- mutagenic call (Test System: AMES SALMONELLA TYPHIMURIUM, Strain/Indicator: TA100, Metabolic Activation: RAT, LIVER, S-9, AROCLOR 1254, Method: BAG VAPORIZATION): inactive; negative
- mutagenic call (Test System: AMES SALMONELLA TYPHIMURIUM, Strain/Indicator: TA100, Metabolic Activation: RAT, LIVER, S-9, AROCLOR 1254, Method: FLUCTUATION TEST): active; positive
- mutagenic call (Test System: AMES SALMONELLA TYPHIMURIUM, Strain/Indicator: TA100, Metabolic Activation: RAT, LIVER, S-9, PHENOBARBITAL AND 5,6-BENZOFLAVONE, Method: PREINCUBATION): inactive; negative
- mutagenic call (Test System: AMES SALMONELLA TYPHIMURIUM, Strain/Indicator: TA102, Metabolic Activation: NONE, Method: STANDARD PLATE): inactive; negative
- mutagenic call (Test System: AMES SALMONELLA TYPHIMURIUM, Strain/Indicator: TA102, Metabolic Activation: RAT LIVER S-9, AROCLOR 1254, Method: STANDARD PLATE): inactive; negative
- mutagenic call (Test System: MOUSE LYMPHOMA, Strain/Indicator: L5178Y (TK+/TK- -3.7.2C), Metabolic Activation: S-9): active; positive

Compound: O=[N+]([O-])c1ccccc1OS(=O)(=O)c1cccc2cccnc12
- mutagenic call (Test System: AMES SALMONELLA TYPHIMURIUM, Strain/Indicator: TA98, Metabolic Activation: NONE, Method: STANDARD PLATE): inactive; negative
- mutagenic call (Test System: AMES SALMONELLA TYPHIMURIUM, Strain/Indicator: TA98, Metabolic Activation: RAT, LIVER, S-9, AROCLOR 1254, Method: STANDARD PLATE): active; positive
- mutagenic call (Test System: AMES SALMONELLA TYPHIMURIUM, Strain/Indicator: TA100, Metabolic Activation: NONE, Method: STANDARD PLATE): inactive; negative
- mutagenic call (Test System: AMES SALMONELLA TYPHIMURIUM, Strain/Indicator: TA100, Metabolic Activation: RAT, LIVER, S-9, AROCLOR 1254, Method: STANDARD PLATE): active; positive
- mutagenic call (Test System: AMES SALMONELLA TYPHIMURIUM, Strain/Indicator: TA1535, Metabolic Activation: NONE, Method: STANDARD PLATE): inactive; negative
- mutagenic call (Test System: AMES SALMONELLA TYPHIMURIUM, Strain/Indicator: TA1535, Metabolic Activation: RAT, LIVER, S-9, AROCLOR 1254, Method: STANDARD PLATE): inactive; negative
- mutagenic call (Test System: AMES SALMONELLA TYPHIMURIUM, Strain/Indicator: TA1537, Metabolic Activation: NONE, Method: STANDARD PLATE): inactive; negative
- mutagenic call (Test System: AMES SALMONELLA TYPHIMURIUM, Strain/Indicator: TA1537, Metabolic Activation: RAT, LIVER, S-9, AROCLOR 1254, Method: STANDARD PLATE): inactive; negative

Compound: Oc1cccc2c1[nH]c1ccccc12
- mutagenic call (Test System: CHINESE HAMSTER OVARY, Strain/Indicator: CHO-K1-BH4 (HGPRT)/6-THIOGUANINE, Metabolic Activation: RAT, LIVER, S-9, AROCLOR (4%)): active; positive

Compound: C1=CC2C3C=CC(C3)C2C1 (stereo unspecified)
- mutagenic call (Test System: AMES SALMONELLA TYPHIMURIUM, Strain/Indicator: TA98, Metabolic Activation: HAMSTER, LIVER, S-9, AROCLOR 1254 (10%), Method: PREINCUBATION): inactive; negative
- mutagenic call [1]: inactive; negative
- mutagenic call (Test System: AMES SALMONELLA TYPHIMURIUM, Strain/Indicator: TA98, Metabolic Activation: RAT LIVER S-9, PHENOBARBITAL AND BETA-NAPHTHOFLAVONE, Method: PREINCUBATION): inactive; negative
- mutagenic call (Test System: AMES SALMONELLA TYPHIMURIUM, Strain/Indicator: TA98, Metabolic Activation: RAT, LIVER, S-9, AROCLOR 1254 (10%), Method: PREINCUBATION): inactive; negative
- mutagenic call (Test System: AMES SALMONELLA TYPHIMURIUM, Strain/Indicator: TA100, Metabolic Activation: HAMSTER, LIVER, S-9, AROCLOR 1254 (10%), Method: PREINCUBATION): inactive; negative
- mutagenic call [2]: inactive; negative
- mutagenic call (Test System: AMES SALMONELLA TYPHIMURIUM, Strain/Indicator: TA100, Metabolic Activation: RAT LIVER S-9, PHENOBARBITAL AND BETA-NAPHTHOFLAVONE, Method: PREINCUBATION): inactive; negative
- mutagenic call (Test System: AMES SALMONELLA TYPHIMURIUM, Strain/Indicator: TA100, Metabolic Activation: RAT, LIVER, S-9, AROCLOR 1254 (10%), Method: PREINCUBATION): inactive; negative
- mutagenic call (Test System: AMES SALMONELLA TYPHIMURIUM, Strain/Indicator: TA1535, Metabolic Activation: HAMSTER, LIVER, S-9, AROCLOR 1254 (10%), Method: PREINCUBATION): inactive; negative
- mutagenic call (Test System: AMES SALMONELLA TYPHIMURIUM, Strain/Indicator: TA1535, Metabolic Activation: NONE, Method: PREINCUBATION): inactive; negative
- mutagenic call (Test System: AMES SALMONELLA TYPHIMURIUM, Strain/Indicator: TA1535, Metabolic Activation: RAT LIVER S-9, PHENOBARBITAL AND BETA-NAPHTHOFLAVONE, Method: PREINCUBATION): inactive; negative
- mutagenic call (Test System: AMES SALMONELLA TYPHIMURIUM, Strain/Indicator: TA1535, Metabolic Activation: RAT, LIVER, S-9, AROCLOR 1254 (10%), Method: PREINCUBATION): inactive; negative
- mutagenic call (Test System: AMES SALMONELLA TYPHIMURIUM, Strain/Indicator: TA1537, Metabolic Activation: HAMSTER, LIVER, S-9, AROCLOR 1254 (10%), Method: PREINCUBATION): inactive; negative
- mutagenic call (Test System: AMES SALMONELLA TYPHIMURIUM, Strain/Indicator: TA1537, Metabolic Activation: NONE, Method: PREINCUBATION): inactive; negative
- mutagenic call (Test System: AMES SALMONELLA TYPHIMURIUM, Strain/Indicator: TA1537, Metabolic Activation: RAT LIVER S-9, PHENOBARBITAL AND BETA-NAPHTHOFLAVONE, Method: PREINCUBATION): inactive; negative
- mutagenic call (Test System: AMES SALMONELLA TYPHIMURIUM, Strain/Indicator: TA1537, Metabolic Activation: RAT, LIVER, S-9, AROCLOR 1254 (10%), Method: PREINCUBATION): inactive; negative
- mutagenic call (Test System: E.COLI, Strain/Indicator: WP2UVRA, Metabolic Activation: NONE, Method: PREINCUBATION): inactive; negative
- mutagenic call (Test System: E.COLI, Strain/Indicator: WP2UVRA, Metabolic Activation: RAT LIVER S-9, PHENOBARBITAL AND BETA-NAPHTHOFLAVONE, Method: PREINCUBATION): inactive; negative

Compound: Cc1c2ccccc2c(CO)c2c1ccc1ccccc12
- mutagenic call (Test System: CHINESE HAMSTER V-79, Strain/Indicator: V-79/6-THIOGUANINE, Metabolic Activation: CELL-MEDIATED, Method: STANDARD PLATE): active; positive
- mutagenic call (Test System: CHINESE HAMSTER V-79, Strain/Indicator: V-79/OUABAIN, Metabolic Activation: CELL-MEDIATED, Method: STANDARD PLATE): active; positive
